Patent US20240285808A1, “MOLECULAR PROBES FOR IN VIVO DETECTION OF ALDEHYDES” (The General Hospital Corporation, priority 2021, published 2024)

Experiments:
[1] = tested on: liver of CCl4 injured mice; format: in vivo, mouse; conditions: CCl4 injured mice
Method: CCl4 Liver Fibrosis Model:
Male C57BL/6 mice (Charles River Laboratories, Wilmington, MA) were treated with carbon tetrachloride for 12 weeks (0.1 ml of 20% CCl4 in olive oil the first week, 30% the second week, and 40% from weeks 3-12) by oral gavage, 2-3 times per week. Control mice were fed vehicle (olive oil) only.
A total of 53 C57BL/6 mice were included to study CCl4 induced hepatic fibrosis: • A. CCl4 for 12 weeks (n=20). Each mouse was imaged with probe 1 and then imaged again 24 hours later with probe 2. Probe 1 and Probe 2 were randomly chosen from GdDOTA, GdCHyd, Mn-12, Gd-9 and Gd-10. • B. Vehicle treated control (n=20). Each mouse was imaged with probe 1 and then imaged again 24 hours later with probe 2. Probe 1 and Probe 2 were randomly chosen from GdDOTA, Mn-12, GdCHyd, Gd-9, Gd-10. • C. CCl4 for 12 weeks (n=3, another 3 pair-wise comparison have been done in group A). Each mouse was imaged with probe 1 and then imaged again 24 hours later with probe 2. […] Each mouse was imaged with probe 1 and then imaged again 24 hours later with probe 2. Probe 1 and Probe 2 were randomly choosing from Gd-9 and Gd-10. • E. CCl4 for 12 weeks (n=3). Each mouse was imaged with Gd-9. After 24 hours, the same mouse was first injected with 1000 μmol/kg of Yb-9 and then injected with 100 μmol/kg of Gd-9 15 min after the Yb-9 injection.
Animals were anesthetized with isoflurane (1-2%) and placed in a specially designed cradle with body temperature maintained at 37° C. The inhaled isoflurane level was adjusted to maintain a respiration rate of 60±5 breaths per minute. The tail vein was cannulated for intravenous (i.v.) delivery of the contrast agent while the animal was positioned in the scanner. Imaging was performed at 4.7 T using a small bore animal scanner with a custom-built volume coil. Mice were imaged with a dose of 100 μmol/kg from 30 mM stock solution of Gd or Mn complex.
For mice liver imaging, a series of baseline images (3D T1 weighted fast low angle shot magnetic resonance imaging (FLASH)) were first acquired (repetition time/echo time=15/2 ms; flip angle, 30°; field of view, 48×30 mm^2; matrix size, […]; slice thickness, 0.25 mm; acquisition time, 3 minutes 20 seconds), then a bolus of Gd or Mn complex was administered i.v. and imaging performed for a period of 45 min p.i. with the repetition acquisition of 3D T1 weighted FLASH sequences. Following the imaging session, animals were sacrificed (75 min p.i.) and liver tissue was subjected to histopathologic analysis.
For liver imaging analysis, a region of interest (ROI) was manually traced encompassing the liver parenchyma while avoiding major blood vessels. A second ROI was placed on the dorsal muscle visible in the same image slice to quantify the signal intensity in the muscle for comparison. Seven ROIs were placed in the field of view without any tissue (air) to measure the variation in background signal. More than 20 axial slices per mouse across the entire liver were analyzed in this fashion. […] Contrast to noise ratio (CNR) was calculated by measuring the difference in signal intensity (SI) between liver and muscle and normalizing to the standard deviation of the signal in the air, eq 21. ΔCNR was calculated by subtracting CNR measured prior to probe injection (CNRPre) from CNR measured after injection (CNRPost), eq 22. […]

[2] = tested on: lungs of bleomycin-injured mice; assay: PET probe lung uptake in naïve and bleomycin-injured mice (gamma counter); format: in vivo, mouse; conditions: 90 min post injection; for Lung uptake, Bleo: 14 days post bleomycin injury; for Lung uptake, Naïve: naïve mice
Method: C57Bl/6 adult male mice at 8 weeks of age (Jackson Laboratories, Barr Harbor, ME) received a single intratracheal dose of bleomycin, 1 units/kg body weight (50 μL total volume) (Fresenius Kabi, Lake Zurich, Il) as previously described in Desogere, P., et al. Optimization of a Collagen-Targeted PET Probe for Molecular Imaging of Pulmonary Fibrosis. J Nuc Med 58, 1991-1996 (2017).
Imaging and Biodistribution Study for Selectivity of Allysine-Reactive Probes In Vivo:
(§1) Bleomycin-injured mice at 14 days after injury were sedated and then injected with Compound 19, Compound 20, Gd-CHyd (Akam, E. A., et al. Improving the reactivity of hydrazine-bearing MRI probes for in vivo imaging of lung fibrogenesis. Chemical Science 11, 224-231 (2020)) formulated to contain an equal concentration of Eu-DOTA as a non-binding control probe. Animals were then euthanized at 30 minutes after injection. The lungs were harvested separately, along with blood, tail and liver. Each sample was analyzed by ICP-MS for gadolinium and europium content, and the lungs were also assessed for hydroxyproline content. Selectivity is reported as the ratio of Gd to Eu. All animals were dosed via tail vein injection at 100 nmol/g body weight from 30 mM solutions of gadolinium probes with 30 mM Eu-DOTA as determined by ICP-MS. For PET probes, Compounds 1-8 were radiolabeled with either ^68Ga or ^64Cu and the dose was delivered as a bolus injection through tail vein. Animals were euthanized 90 min post injection and their organs and tissues were harvested and counted using a gamma counter. For an imaging study with a PET tracer, animals were injected inside PET/MRI scanner and scanned dynamically for 60 min under anesthesia. The animals were euthanized 90 min post injection and their organs and tissues were counted using a gamma counter. The biodistribution of Mn-15, Mn-16, Mn-17, and Mn-18 was determined by injecting a mixture of ^52/nat complex into naïve mice and activity in each tissue were measured 24 hours post injection.

[3] = tested on: lungs of bleomycin-injured mice; assay: ^68Ga-7 PET/MRI imaging and organ counts in bleomycin-injured and naïve mice; format: in vivo, mouse; conditions: for probe uptake in lungs, PET scans: 55 min p.i.; for probe uptake in lungs, organ counts: 90 min p.i.
Method: as §1
Probe ^68Ga-7 was synthesized in 5 steps. Male C57BL/6 mice were intratracheally instilled with bleomycin (1.2 U/kg) and imaged after 14 days when allysine levels peak in the lung. Bleomycin injured mice or age-matched controls were placed in a micro-PET/MRI scanner and administered ^68Ga-7 as a bolus via the lateral tail vein and dynamically imaged for 60 minute. At 90 min p.i. animals were euthanized, and their organs were harvested for gamma counting. After gamma counting, lungs were flash-frozen and later analyzed for hydroxyproline (total collagen, fibrosis measure) and allysine content.

[4] = biological target: bovine serum albumin (BSA) (Bos taurus, UniProt P02769); assay: Relaxivity measurements with BSA; format: binding; conditions: 1.4 T, 37° C., BSA 10 mg/mL
Method: (§2) BSA-ALD (10 mg/mL) or BSA (10 mg/mL) were treated for 24 hours at 37° C. with the corresponding Gd or Mn complex at a range of concentrations (0.01-0.2 mM), with a total volume of 300 μL maintained for all samples. After 24 hours, an aliquot of the solution (50 μL) was used for longitudinal (T1) relaxation measurements, recorded using a Bruker mq60 Minispec at 1.41 T and 37° C. Longitudinal (T1) relaxation times were measured via an inversion recovery experiment using 10 inversions of duration ranging between 0.05×T1 and 10×T1. Solutions (concentration range: 0.1 mM-1.0 mM) in PBS were run in parallel. To measure the relaxivity of BSA-bound species, sodium cyanoborohydride (10 mg) was added to the solution to irreversibly bind the probe to the protein. After a further 2h incubation at 37° C., protein-bound and protein-free solutions were separated by ultrafiltration. Then 200 μL PBS was added to the residue to dissolve the protein. Longitudinal (T1) relaxation times for the bounded species were measured using a Bruker mq60 Minispec at 1.41 T and 37° C. After the measurement, concentration of corresponding metal ion (Gd/Mn) in the residue and filter were both determined using an Agilent 8800 ICP-MS system. Relaxivity (r1) was determined from the slope of a plot of 1/T1 vs metal concentration for 5 concentrations.

[5] = Relaxivity measurements in PBS; format: physicochemical; conditions: 1.4 T, 37° C.
Method: as §2

[6] = biological target: T1, BSA-ALD (oxidized bovine serum albumin containing allysine aldehyde groups) (Bos taurus, UniProt P02769); assay: Relaxivity measurements with BSA-Ald; format: binding; conditions: 1.4 T, 37° C., BSA-Ald 10 mg/mL
T1 construct: made in house; host or cells: no expression host: BSA oxidised chemically with sodium ascorbate, ferric chloride and H2O2, then desalted on PD-10
Method: Preparation of Allysine Containing Bovine Serum Albumin, BSA-ALD:
To a solution of bovine serum albumin (BSA) (100 mg) dissolved in phosphate buffered saline (4 mL, pH 7.4, 0.25 mM), sodium ascorbate (20 mg), ferric chloride (120 μL, 10 mM) and 20 μL H2O2 (30% w) were added. The reaction was stirred at 37° C. for 24 hours, and sodium ascorbate (20 mg) was added repeatedly every 8 hours. After the reaction, protein was purified using PD-10 Sephadex G25 desalting columns (GE Healthcare), eluted with PBS. Protein concentration was assessed using the ‘BCA Protein Assay Kit’ (Thermo Scientific). Protein carbonyl concentration was determined by ‘Protein Carbonyl Content Assay Kit’ (Sigmal-Aldrich).
Alternatively, preparation of BSA^Ald and binding of Gd^3+ probe to protein was carried out according to modified procedures. To a solution of bovine serum albumin (BSA) (100 mg) dissolved in phosphate buffered saline (4 mL, pH 7.4, 0.25 mM) was added sodium ascorbate (20 mg), ferric chloride (120 μL, 10 mM) and 20 μL H2O2 (30% w). The reaction was stirred at 37° C. for 24 h, and sodium ascorbate (20 mg) was added repeatedly every 8 h. After 24 h, the protein was purified using PD-10 Sephadex G25 desalting columns (GE Healthcare), eluted with PBS. Protein concentration was assessed using the ‘Micro BCA Protein Assay Kit’ (Thermo Scientific, 23235). Protein carbonyl concentration was determined by ‘Protein Carbonyl Content Assay Kit’ (Sigma-Aldrich, MAK094-1KT). […] The protein solutions were kept at a concentration of 20 mg/mL for further use.
as §2

Chain of bovine serum albumin (BSA) (P02769 25-607): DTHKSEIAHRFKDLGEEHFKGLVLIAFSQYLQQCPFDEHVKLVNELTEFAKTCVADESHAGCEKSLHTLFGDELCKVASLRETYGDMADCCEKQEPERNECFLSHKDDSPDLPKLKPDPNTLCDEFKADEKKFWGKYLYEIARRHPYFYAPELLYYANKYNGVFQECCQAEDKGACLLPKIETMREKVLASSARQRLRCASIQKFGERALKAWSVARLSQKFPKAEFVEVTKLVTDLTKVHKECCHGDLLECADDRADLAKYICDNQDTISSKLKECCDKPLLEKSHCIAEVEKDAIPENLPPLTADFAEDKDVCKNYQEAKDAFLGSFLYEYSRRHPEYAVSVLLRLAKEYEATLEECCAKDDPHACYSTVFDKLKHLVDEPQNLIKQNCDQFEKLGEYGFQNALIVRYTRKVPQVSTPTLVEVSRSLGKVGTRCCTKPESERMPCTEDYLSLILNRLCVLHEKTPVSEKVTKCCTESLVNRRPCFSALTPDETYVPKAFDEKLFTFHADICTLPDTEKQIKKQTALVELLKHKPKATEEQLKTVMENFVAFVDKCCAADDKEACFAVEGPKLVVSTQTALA
T1 sequence (P02769 25-607): as above

| Compound | Lung uptake, Bleo [2] | Lung uptake, Naïve [2] | other results |
| --- | --- | --- | --- |
| NN1CCN(C(=O)CCC(C(=O)[O-])N2CCN(CC(=O)[O-])CCN(CC(=O)[O-])CCN(C(CCC(=O)N3CCN(N)CC3)C(=O)[O-])CC2)CC1.[Yb+3] (stereo not shown) [Yb-9] |  |  | blocking of Gd-9 liver MRI enhancement ([1]; 10-fold dose (1000 μmol/kg) 15 minutes before Gd-9): completely eliminated liver MRI enhancement with Gd-9 |
| NC(Cn1cccc1)C(=O)NCCOCCOCCOCCNC(=O)CN1CCN(CC(=O)[O-])CCN(CC(=O)[O-])CC1.[64Cu+2] (stereo not shown) [^64Cu-2] | 0.42 % ID/g | 0.26 % ID/g |  |
| O=C([O-])CN1CCN(CC(=O)[O-])CCN(CC(=O)NCCOCCOCCOCCNC(=O)CN2C(=O)CSC2=S)CC1.[64Cu+2] [^64Cu-4] | 0.66 % ID/g | 0.38 % ID/g |  |
| NN1CCN(C(=O)CCOCCOCCOCCOCCNC(=O)CN2CCN(CC(=O)[O-])CCN(CC(=O)[O-])CC2)CC1.[68Ga+3] [^68Ga-1] | 0.99 % ID/g | 0.27 % ID/g |  |
| NC(Cn1cccc1)C(=O)NCCOCCOCCOCCNC(=O)CN1CCN(CC(=O)[O-])CCN(CC(=O)[O-])CC1.[68Ga+3] (stereo not shown) [^68Ga-2] | 0.96 % ID/g | 0.45 % ID/g |  |
| Cc1cc(O)n(CC(=O)NCCOCCOCCOCCNC(=O)CN2CCN(CC(=O)[O-])CCN(CC(=O)[O-])CC2)n1.[68Ga+3] [^68Ga-3] | 2.13 % ID/g | 0.82 % ID/g |  |
| O=C([O-])CN1CCN(CC(=O)[O-])CCN(CC(=O)NCCOCCOCCOCCNC(=O)CN2C(=O)CSC2=S)CC1.[68Ga+3] [^68Ga-4] | 0.61 % ID/g | 0.24 % ID/g |  |
| NNC(=O)C(N)CCC(=O)NCCOCCOCCOCCNC(=O)CN1CCN(CC(=O)[O-])CCN(CC(=O)[O-])CC1.[68Ga+3] (stereo not shown) [^68Ga-5] | 0.88 % ID/g | 0.30 % ID/g |  |
| CNCCC1=NN(CC(=O)NCCOCCOCCOCCNC(=O)CN2CCN(CC(=O)[O-])CCN(CC(=O)[O-])CC2)C(=O)C1.[68Ga+3] [^68Ga-6] | 1.32 % ID/g | 0.84 % ID/g |  |
| NNC(CCC(=O)NCCOCCOCCOCCNC(=O)CN1CCN(CC(=O)[O-])CCN(CC(=O)[O-])CC1)C(=O)O.[68Ga+3] (stereo not shown) [^68Ga-7] |  |  | probe uptake in lungs, PET scans ([3]; Bleomycin injured mice (n = 5)): 0.51 % ID/cc; probe uptake in lungs, organ counts ([3]; Bleomycin injured mice (n = 5)): 2.65 % ID/g; probe uptake in lungs, PET scans ([3]; Naïve mice (n = 4)): 0.23 % ID/cc; probe uptake in lungs, organ counts ([3]; Naïve mice (n = 4)): 0.886 % ID/g; uptake in bleomycin injured lung compared to ^68Ga-NODAGA-indole ([3]; mouse, in vivo): twice the uptake; blood clearance and elimination ([3]; naïve animal): rapid blood clearance |
| GdDOTA [reference compound] |  |  | r1, +BSA [4]: 4.0 mM⁻¹ s⁻¹; liver enhancement ([1]; 45 min p.i.): no significant liver enhancement; ΔCNR (liver to muscle) ([1]; 45 min post injection, 100 μmol/kg i.v., group mean): 0.1 ± 0.2; r1, PBS [5]: 4.0 mM⁻¹ s⁻¹; r1, +BSA-Ald [6]: 4.0 mM⁻¹ s⁻¹ |
